We go through 1 substance from patent US20080255041A1, “Treatment of annulus fibrosis defects” (EBI, L.P., priority 2007, published 2008).

The assay deals with annulus fibrosis of the defective disc. Put plainly: Injection of the composition into the annulus fibrosis of a patient with degenerative disc disease. The assay is classed as in vivo, human. As to conditions: patient with transverse annulus fibrosis tear between fifth lumbar and sacrum; F2A4-K—NS in hyaluronic acid carrier injected by syringe. The text has this: A syringe containing the synthetic molecule F2A4-K—NS and a hyaluronic acid carrier is used to inject the composition into the annulus fibrosis of the defective disc. […] In the above example, collagen, heparin sulfate or propylene glycol is substituted for hyaluronic acid, to form gel carriers, with substantially similar results.

On to “H—YRSRKYSSWYVALKRK(H—YRSKYSSWYVALKR)-Ahx-Ahx-Ahx-RKRLDRIAR—NH2 [F2A4-K—NS]”, for which the “angiogenesis at the site of the annulus fibrosis defect” value is given as “promotes angiogenesis” and the “degeneration of the disc / closure of the annulus fibrosis tear” value is given as “prevents further degeneration of the disc”.
